Laboratory results from patent publication US9102648B1, “Bioavailable diacylhydrazine ligands for modulating the expression of exogenous genes via an ecdysone receptor complex” (Intrexon Corporation, priority 2003, dated 2015).
Where two headings read alike, the source gives them in different places.

Experiments:
[1] = target: GAL4 DBD (1-147)-CfEcR(DEF)/VP16AD-βRXREF-LmUSPEF (Choristoneura fumiferana, UniProt O77240); test: cell-based; details: for Fold Induction, 27-63 Assay, 3.3 uM: 3.3 uM ligand; for Fold Induction, 27-63 Assay, 3.3 uM / Fold Induction, 27-63 Assay, 33 uM: RLU ligand treated / RLU DMSO treated cells; for Fold Induction, 27-63 Assay, 33 uM: 33 uM ligand; for 27-63 assay Rel Max FI: maximum fold induction at any concentration relative to that of GS-E ligand, CHO 27-63 cells; for fold induction at 3.3 µM: read-out: Fold Induction, 27-63 Assay, 3.3 uM; for fold induction at 33 µM: read-out: Fold Induction, 27-63 Assay, 33 uM
[2] = target: GAL4 DBD-CfEcR(DEF)/VP16AD-MmRXRE (Choristoneura fumiferana, UniProt O77240); test: 13B3 Assay (CHO stable cell line, luciferase reporter); details: for Fold Induction, 13B3 Assay, 3.3 uM: 3.3 uM ligand; for Fold Induction, 13B3 Assay, 3.3 uM / Fold Induction, 13B3 Assay, 33 uM: RLU ligand treated / RLU DMSO treated cells; for Fold Induction, 13B3 Assay, 33 uM: 33 uM ligand; for 13B3 assay Rel Max FI: maximum fold induction at any concentration relative to that of GS-E ligand, CHO 13B3 cells; for fold induction at 33 µM: read-out: Fold Induction, 13B3 Assay, 33 uM
Summary of the method: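 CHO 13B3 clone stably expressing GAL4 DBD–CfEcR(DEF) and VP16AD–MmRXR(DE) with GAL4 RE–luciferase reporter; cells plated 24 h at 37 °C, then treated with ligands (DMSO stocks diluted 300-fold), 8 concentrations 33–0.01 μM.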

[3] = read-out: 27-63 assay EC50, CHO 27-63 stable cell line, luciferase reporter, average of two wells
[4] = read-out: 13B3 EC50, CHO 13B3 stable cell line, luciferase reporter, 48 h, average of two wells

SMILES	Fold Induction, 27-63 Assay, 3.3 uM ([1]; average of two wells)	Fold Induction, 27-63 Assay, 33 uM ([1]; average of two wells)	27-63 assay Rel Max FI [1]	EC50 [1, 3] [nM]	Fold Induction, 13B3 Assay, 3.3 uM ([2]; average of two wells)	Fold Induction, 13B3 Assay, 33 uM ([2]; average of two wells)	13B3 assay Rel Max FI [2]	EC50 [2, 4] [nM]	EC50 [1] [nM]	fold induction at 3.3 µM [1]	fold induction at 33 µM [1]	EC50 [2] [nM]	fold induction at 33 µM [2]	fold induction at 3.3 µM ([2]; read-out: Fold Induction, 13B3 Assay, 3.3 uM)
CCc1c(OC)cccc1C(=O)NN(C(=O)c1c(F)cccc1F)C(C)(C)C [RG-115033]	2	1256	0.868	18100	386	12	0.643	1000						
CCc1c(OC)cccc1C(=O)NN(C(=O)c1cc(C)cc(C)c1)C(C)(C)C(=O)O [RG-115044, 2-[N-(3,5-Dimethyl-benzoyl)-N′-(2-ethyl-3-methoxy-benzoyl)-hydrazino]-2-methyl-propionic acid]			0.00				0.87		> 33000	1	2	> 50000	1	
CCc1c(C(=O)NN(C(=O)c2ccccc2)C(C)(C)C)ccc2c1OCOC2 [RG-115046]	18	1069	0.739	5660		1076								
COc1cc(C(=O)N(NC(=O)c2ccc3c(c2C)CCCO3)C(C)(C)C)cc(OC)c1C [RG-115055]	4499	2725	1.341	318	1356	1350	0.894	303						
CCc1c(C(=O)NN(C(=O)c2ccccc2OC)C(C)(C)C)ccc2c1OCOC2 [RG-115065]	859	1095	0.746	3000		880								
CCc1c(C(=O)NN(C(=O)c2ccc(Cl)cc2OC)C(C)(C)C)ccc2c1OCO2 [RG-115085]	1143	1149	0.683	807		236								
COc1cc(C(=O)N(NC(=O)c2ccc3c(c2C)OCCO3)C(C)(C)C#N)cc(OC)c1C [RG-115092, N-(5-methyl-1,4-benzodioxan-6-carbonyl)-N′-(2-cyano-2-propyl)-N′-(3,5-dimethoxy-4-methylbenzoyl)hydrazine]			1.092				1.176		213	2870	3110	184	2410	2320
COc1ccccc1C(=O)N(NC(=O)c1ccc2c(c1C)CCCO2)C(C)(C)C [RG-115102]	1154	971	0.667	491	1425	109	0.546	930						
Cc1c(C(=O)NN(C(=O)c2ccc(F)cc2)C(C)(C)C)ccc2c1CCCO2 [RG-115118]	1063	914	0.612	394	979	769	0.530	689						
CCc1c(C(=O)NN(C(=O)c2cc(OC)c(C)c(OC)c2)C(C)(C)C)ccc2c1OCCO2 [RG-115130]	4436	4096	1.375	93	987	511		512						
CCc1c(OC)cccc1C(=O)NN(C(=O)c1cc(C)cc(C)c1)C(C)(C)CO [RG-115143]	59	1736	1.112	7780	1	2032	0.651	> 50000						
CCc1c(OC)cccc1C(=O)NN(C(=O)c1cc(C)ccc1[N+](=O)[O-])C(C)(C)C [RG-115162]	1814	1464	0.653	424	755	320	0.630	811						
